Data from patent US11022604B2, “Dock derived compound against laminin receptor (37 LR) and uses thereof” (Purdue Research Foundation, priority 2017, dated 2021).
pIC50: −log10 of the molar value.

Test system: SH-SY5Y neuroblastoma cells
Assay: Cell viability screen (CCK-8), SH-SY5Y cells
Type: cell-based
Settings: Homo sapiens, CCK-8, 96 hours, read-out: IC50, inhibition of cell viability
Method: FIGS. 2A-2H. Dose response curves. Does response curves for cell lines treated with 6, 10.5, 18.6, 32.4, 57.5 and 100 μM of compound (log) for 96 hours using % cell viability derived from CCK-8 absorbance readings at 450 nm (n=3, mean±SEM). A DMSO equivalent control (n=2±SEM) was also included for each cell line tested: Ea.hy.926 endothelial cells (Endo), LNCaP androgen dependent metastatic prostate cancer cells, TC2-Ras mouse prostate cancer cells, PC-3 androgen independent metastatic prostate cancer cells, and SH-SY5Y neruoblastoma cells. […]
Cell Viability Screen. […] Cell viability was measured by using the cell counting kit-8 (CCK-8, Dojindo). […] CCK-8 absorbance was measured at 450 nm using a GloMax Multimode Reader (Promega). Readings were performed the day after seeding to normalize for variations in cell seeding and after 96 hours of compound treatment. After each reading, CCK-8 media was removed and replaced with media containing compound as described previously. […] As described previously, an initial baseline CCK-8 reading was performed at 24 hours post seeding to correct for variations in seeding density. First, 450 nm values for each well were subtracted from media only readings to correct for baseline absorbance. Then, the 96 hour readings were normalized to their respective 24 hour readings to control for seeding variation. […]

pIC50: 4.73
SMILES: O=C(c1cc(F)cc2c1OCOC2)N1CCN(C2c3ccccc3-c3ccccc32)CC1 [Compound C3, [4-(9h-fluoren-9-yl)piperazino](6-fluoro-4h-1,3-benzodioxin-8-yl)methanone]
